Values of other authors, collected in patent publication US20100130528A1, “ADAMANTANE MODULATORS OF NMDA RECEPTOR AND/OR 5HT3 RECEPTOR” (AUSPEX PHARMACEUTICALS, INC., priority 2008, published 2010).

Legend:
[1] = in man
[2] = in vivo

circulating memantine-related material present as the parent compound [1]: about 80%
Structure (SMILES): CC12CC3CC(C)(C1)CC(N)(C3)C2 [memantine, 1-amino-3,5-dimethyl-adamantane]
cytochrome P450 catalysed metabolism (cytochrome P450): No cytochrome P450 catalysed metabolism has been detected
adverse effects [2]: fatigue, pain, hypertension, dizziness, headache, constipation, vomiting, confusion, somnolence, hallucination, cough, and dyspnea
